Molecules are shown by their SMILES.

Holding throughout (format): cell-based
In series [1] the test system is U251 cells. As to the kind of experiment: F-actin foci and pY397-FAK organization, immunofluorescence (FIG. 20). The conditions noted are these: 96 h, 2 ng/ml TGF-beta1. The source says:
Cell cytoskeleton plays a significant role during the migration and invasion of cancer cells. Changes in the cytoskeleton accompanies the cell shape changes and which subsequently changes the dynamic actin polymerization and depolymerization process. The attachment of cells to the substrate is integrin dependent and as such it was postulated that the RACK1 dependent migration will also regulate the cytoskeleton changes. In this regard, F-actin foci helps stress fiber based directional filipodia development. To visualize F-actin, we used […] that labels the F-actins. FAK located at focal contact which is actin based anchoring junction that links the cells with the ECM and mostly used by motile cells like the metastatic cancer cells. FAK is known as the key regulator of the F-actin dynamics (Li et al., 2013). (Li S Y, et al., Focal adhesion kinase is a regulator of F-actin dynamics: New insights from studies in the testis, Spermatogenesis, 3 (3): e25385 (2013).
The presence of pY397-FAK can be seen in a linear organized way within the migratory structures but such organized presence of the pY397-FAK was not seen in the presence of the representative compound (SD29-14).
As to FIG. 20, and methods, U251 cells were grown on glass coverslip for 96 h in the presence or absence of SD29-14 containing MEM media with 2 ng/ml TGF-beta1 growth factor. […]

Another series has as its system MCF-7 cells. As to the kind of experiment: Filipodia/lamellipodia development of TGF-induced cells on Matrigel, Giemsa stain (FIG. 3, FIG. 5). How it is done: About 1×10^5 Breast cancer cells (MCF-7) treated with DMSO or SD29-14 for 48 h were resuspended in serum free MEM media and were then plated on 1:6 diluted (with serum free media) matrigel (Basement membrane mimic) in the presence of Transforming Growth Factor (TGFbeta) which is a known inducer of EMT that lead to the migration-(Lamouille and Derynck (2009)), with DMSO or with SD29-14 and the cells were allowed to grow for 20 h on Matrigel. After incubation, media and matrigels were carefully removed and adherent cells were washed three times with 1×PBS; to visualize cells, cells were incubated with Giemsa Stain (Sigma-Aldrich) (1:20 with water) for 10 minutes, washed in water until no blue color rinsed out from the well images under a Zeiss Compound microscope.
Efficacy for inhibiting migration at a lower concentration of a representative compound was also investigated. Cancer cell lines were treated under conditions as used above for FIG. 2 and FIG. 3 but with both 10 μM and 100 μM SD29-14.
The experimental methods, except for the different cell line, are essentially same as stated above as to FIG. 4.

Series [2] deals with T1, RACK1A Y248 phosphorylation (Arabidopsis thaliana, UniProt O24456).
T1 construct: from tissue; host or cells: one-week old Arabidopsis seedlings (whole-seedling lysate)
As to the kind of experiment: Stress hormone (ABA) induced RACK1A Y248 phosphorylation in Arabidopsis seedlings, western blot (FIG. 1). Particulars: 10 uM ABA, 12 hours. The source says:
The results of lab experiment establish the compounds identified by in silico screen to prevent RACK1 Y248 phosphorylation can inhibit RACK1 Y248 phosphorylation and confirm their utility in their application in RACK1 mediated cellular pathways. Y248 phosphorylation has previously been identified as a key event needed for RACK1 mediated scaffolding activities by regulating protein-protein interactions in plants. The corresponding residue in human RAKI is also a key requirement for scaffolding activities needed at the receptor level during the invasion and migration of cancer cells. […] The knock-out plant did maintain both the RACK1B protein and the RACK1C protein, but the antibody was raised to detect the RACK1A Y248 phosphorylation only.
As to FIG. 1, since RACK1 is a regulator of plant stress hormone Abscisic acid (ABA) (Guo et al., 2009), one-week old Arabidopsis seedlings were treated with 10 uM of ABA in the presence/absence of the inhibitor compounds for 12 hours in a growth chamber (overnight) at 22 C mostly in the night dark. Lysates isolated in buffer (Cell Signaling, MA) supplemented with plant protease inhibitor (Sigma-Aldrich), Protein Tyrosine phosphatase inhibitors (Santa Cruz Biotechnology, TX), and N-Ethylamaleimide (Sigma-Aldrich) at 25 mM to inhibit de-sumoylation. […]

Series [3] has as its system U251 cells. As to the kind of experiment: Wound migration assay (FIG. 9). Particulars: TGF, 0 h and 14 h after wounding. From the text: During tumorigenesis, the epithelial-mesenchymal transition (EMT) plays a crucial role in migration and invasion of various cancers. EMT plays an essential role in tumor invasiveness and metastasis in cancer progression. Invasiveness (metastasis) of cancers is associated with a critical physiological process in which epithelial cells transition to mesenchymal transition or differentiation (EMT). Epithelial cells are not regarded as motile. However, in EMT, epithelial cells lose their epithelial characteristics, including their polarity (apical-basal polarity) and specialized cell-cell junctions, to acquire motility (migratory ability) behavior to become invasive mesenchymal cells, (e.g., Qu et al., Int. J. Clin. Exp. Med., 10 (6): 9019-9028 (2017); Xu et al., Cell Res. 19:156-172 (2009)). The motile mesenchymal cells can move (migrate) into surrounding tissue, even remote tissue. […] A wound was created by sliding a tip of a plastic pipette on the surface of almost 100 percent confluent cells and the size of the wound was measured at 0 h and after 14 h of wound creation. […]
In FIG. 10 and FIG. 11, U251 cells were plated in six-well plates and were allowed to reach about 90%-100% density. […] The size of wound was measured under a microscope at 0 and 14 h after wounding.

A short description of series [4]: Toxicity judged from DAPI treated cell nucleus in immunofluorescence experiments. The conditions noted are these: 100 μM. How it is done:
However, 100 μM might be a high concentration or dosing and may be higher than physiologically potent concentration.

T1 sequence (O24456 whole entry): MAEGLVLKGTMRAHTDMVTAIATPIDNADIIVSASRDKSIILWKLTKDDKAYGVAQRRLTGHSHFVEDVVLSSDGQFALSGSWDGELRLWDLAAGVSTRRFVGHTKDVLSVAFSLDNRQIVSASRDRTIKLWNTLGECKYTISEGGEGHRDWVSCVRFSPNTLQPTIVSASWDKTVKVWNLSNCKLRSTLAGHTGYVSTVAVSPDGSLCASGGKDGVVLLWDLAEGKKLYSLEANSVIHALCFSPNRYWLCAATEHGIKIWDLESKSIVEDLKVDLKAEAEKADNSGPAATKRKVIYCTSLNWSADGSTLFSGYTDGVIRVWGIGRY

Take `Nn1c(S)nnc1-c1cc(Cl)cc(Cl)c1` [SD 29-14]: the “number and intensity of F-actin foci” value in the series with U251 cells [1] was “reduced the number and intensity of the F-actin foci”. In addition, the “efficacy to inhibit filipodia and lamellipodia development” value in the series on MCF-7 cells (10 μM, 72 h grown (FIG. 5)) is reported as “maintained”. The “filipodia and lamellipodia development” value with MCF-7 cells (100 uM, TGF-beta on Matrigel, 48 h treated then 20 h on Matrigel) is “the development of both filipodia and lamellipodia was inhibited”. Besides, in series [2], the “RACK1A Y248 phosphorylation with stress hormone present” value is “prevents Y248 phosphorylation”. Besides, the “cell migration into wound” value with U251 cells [3] was “the cells failed to migrate to cover the clear area”. The “toxicity to cells (uniform DAPI treated cell nucleus, drug treated vs non-treated)” value in series [4] is on record as “not exposed to a toxic amount”.

The record behind these values is patent publication US12629355B2, “Drug inhibitor against migration and invasion of cancer cells and methods of treating against metastasis of cancer cells” (HOWARD UNIVERSITY, priority 2019, dated 2026).
